From PMC11881906, “Development of xanthone derivatives as effective broad-spectrum antimicrobials: Disrupting cell wall and inhibiting DNA synthesis” (Science Advances, 2025)
In brackets after ≈: the same amount, converted by molar mass.

Assays:
A. baumannii ATCC 17978 = experiment: MIC, broth microdilution; format: cell-based; settings: Acinetobacter baumannii, ATCC17978; 24-hour incubation, MHB
Experimental: (§1) MIC was determined using the broth microdilution method in accordance with Clinical and Laboratory Standards Institute guidelines. All compounds were dissolved in dimethyl sulfoxide (DMSO; final DMSO concentration of less than 0.5%) and sterile double-distilled water and then diluted with Mueller-Hinton broth (MHB). Each compound’s stock solution was serially twofold diluted, resulting in concentrations ranging from 0.39 to 100 μg/ml, and thereafter added to sterile 96-well plates. All bacterial cell suspensions were adjusted in MHB to attain a starting inoculum of 1 × 10^6 cells/ml. A total of 100 μl volume of the bacterial suspension was then added to each well. Following a 24-hour incubation at 37°C, the optical density at 600 nm (OD600) was confirmed by measuring absorbance at 600 nm with a BioTek microplate reader. […] All measurements were repeated three times with duplicates each time.

A. baumannii R2889 = experiment: MIC, broth microdilution; format: cell-based; settings: Acinetobacter baumannii, 24-hour incubation, MHB
Experimental: as §1

K. pneumonia ATCC 10031 = experiment: MIC, broth microdilution; format: cell-based; settings: Klebsiella pneumoniae, ATCC10031; 24-hour incubation, MHB
Experimental: as §1

K. pneumonia ATCC 14581 = experiment: MIC, broth microdilution; format: cell-based; settings: Klebsiella pneumoniae, ATCC14581; 24-hour incubation, MHB
Experimental: as §1

MRSA N315 = experiment: MIC, broth microdilution; format: cell-based; settings: Staphylococcus aureus, 24-hour incubation, MHB, read-out: MIC90 MRSA N315
Experimental: as §1

MRSA NCTC 10442 = experiment: MIC, broth microdilution; format: cell-based; settings: Staphylococcus aureus; 24-hour incubation, MHB; read-out: MIC90 MRSA NCTC 10442
Experimental: as §1

P. aeruginosa ATCC 9027 [1] = experiment: MIC, broth microdilution; format: cell-based; settings: Pseudomonas aeruginosa, ATCC9027; 24-hour incubation, MHB
Experimental: as §1

S. aureus ATCC 29213 = experiment: MIC, broth microdilution; format: cell-based; settings: Staphylococcus aureus, ATCC29213, 24 h, 24-hour incubation, MHB; read-out: MIC90 S. aureus ATCC 29213
Experimental: as §1

E. coli ATCC 25922 [2] = experiment: MIC, broth microdilution; format: cell-based, Escherichia coli; settings: 24-hour incubation, MHB
Experimental: as §1

rabbit erythrocytes = experiment: Hemolysis assay; format: cell-based; settings: concentration causing 50% hemolysis of red blood cells; 1 hour, 37°C
Experimental: The hemolytic activity of antimicrobial agents was investigated as previously described ([70]). Briefly, the rabbit erythrocytes were centrifuged at 2500 rpm for 3 min before being washed twice with sterile phosphate-buffered saline (PBS) (pH 7.4). Subsequently, the erythrocytes were diluted with PBS to a final concentration of 8% (v/v). The DMSO-dissolved compounds were twofold serially diluted in PBS to achieve a final concentration with DMSO less than 0.5%. […] Sterile PBS and 0.2% Triton X-100 were used as negative and positive controls, respectively. After 1 hour of incubation at 37°C, the tested samples were centrifuged at 2500 rpm for 5 min, and aliquots of the supernatant were added to 96-well microplates. The hemoglobin release was determined by measuring the absorbance at 576 nm using a BioTek multimode reader. The percentage of hemolytic activity was calculated using the following formula: Hemolysis rate (%) = [OD576 (compound) − OD576 (PBS)]/[OD576 (Triton X-100) − OD576 (PBS)] × 100. All measurements were repeated three times with duplicates each time.

Gram-positive bacteria = experiment: MIC, summary over Gram-positive strains; format: cell-based; settings: read-out: MICs against Gram-positive bacteria, three Gram-positive strains
Experimental: as §1

K. pneumoniae = experiment: MIC, summary over K. pneumoniae strains; format: cell-based; settings: Klebsiella pneumoniae, two strains; read-out: MICs against K. pneumoniae
Experimental: as §1

CCK-8 cytotoxicity assay = format: cell-based; settings: mouse, NCTC clone 929 fibroblast cells, 25 μg/ml, read-out: %Viable cells NCTC clone 929 cells
Experimental: Cytotoxicity of the compound tested was assessed by CCK-8 assays as previously described ([71]). […] Following a 24-hour incubation, 10 μl of CCK-8 reagent was added to each well and incubated for 1 hour. The absorbance at 450 nm was measured by a microplate reader. All measurements were repeated three times with duplicates each time.

P. aeruginosa ATCC 9027 [3] = experiment: Serial passage resistance induction; format: cell-based, Pseudomonas aeruginosa; settings: 20-day passages at 0.5× MIC
Experimental: The bacteria were grown in a medium containing 0.5× MIC of each compound to prepare the bacterial suspension for the next MIC determination. The MICs were then recorded after incubation at 37°C for 24 hours. Daily passages were continued until the initial MIC increased by more than fourfold. The stability of acquired resistance was investigated by MIC determination and repeated for 20 days.

E. coli ATCC 25922 [4] = experiment: RNA-seq transcriptome response; format: cell-based, Escherichia coli; settings: 4× MIC, 2 hours
Experimental: After exposure, 1-ml aliquots of cells were immediately pelleted at 4°C by centrifugation for 2 min at 2000 rpm. The supernatants were removed and immediately frozen in liquid nitrogen. The samples were stored at −80°C for later total RNA isolation. Total RNA was extracted using the bacterial RNA kit (Omega Bio-Tek, USA) according to the manufacturer’s instructions. The RNA integrity number values were obtained to assess RNA quality using an Agilent Genomics 2200 Tape Station instrument.
A total amount of 2 to 5 ng of the RNA per sample was executed as the input material to construct each cDNA library for RNA-seq using the NEBNext Ultra Directional RNA Library prep kit from Illumina. The quality of the resulting libraries was checked using Agilent High Sensitivity DNA chips to ensure proper library size distribution and the absence of small adapters.
Read mapping was aligned using Bowtie2 ([74]). HTSeq v0.6.1 was used for quantification of expression levels ([75]). DESeq2 on the R package (v1.12.4) was used to calculate DEGs. Differential expression was computed using edgeR: exactTest for each treatment versus the untreated control ([76]). The E. coli database used for mapping was GCF_017357505.1_ASM1735750v1_genomic.fna. Both the GO and KEGG (KEGG Ortholog database) enrichment analyses were done with the Fisher’s exact test. All P values were adjusted with the Benjamini-Hochberg procedure to generate false discovery rates (adjusted P values). GO enrichment analysis was carried out using the clusterProfiler package on the R platform ([77]). KEGG pathway mapping and figure generation were performed with the PathView website ([78]). COG of protein databases were searched with an E value of 1e^-5. For hierarchal clustering analysis of gene expression, the gene expression levels were normalized to z scores of log10 (FPKM + 1), where FPKM is fragments per kilobase per million. For hierarchal clustering analysis of the regulation of transcription factors, the unweighted pair group method with arithmetic mean (UPGMA) method was used as the clustering method. […] Volcano plots were generated by plot_volcano from soothsayer (https://github.com/jolespin/soothsayer) in Python v.3.6.6. Directed networks were constructed and plotted using NetworkX and Matplotlib Python packages, respectively. Hierarchical clustering analysis and heatmap calculation were performed with the pheatmap package on the R platform. The umap package on the R platform was used for uniform manifold approximation and projection (UMAP) analysis of FPKM vectors of each transcriptome. The figures were created via the ggplot2 package ([79]).

P. aeruginosa ATCC 9027 [5] = experiment: Murine corneal infection model; format: in vivo, mice; settings: topical, 2 days; XT17 5 mg/ml, gatifloxacin 3 mg/ml; vs 5% glucose control
Description: Female C57BL/6 mice (average weight, 20 g) were used for the in vivo efficacy experiments. Mice were housed in a specific pathogen–free facility on a 12-hour light-dark cycle, under the condition with ad libitum access to irradiation sterilized rodent diet and aseptic water. […]. These in vivo experiments were approved by the Experimental Animal Center of South China Agricultural University and conducted in accordance with the policies of the Ministry of Health of China.
The in vivo efficacy of compound XT17 was investigated in a murine corneal infection model. Before infection, the mice were immunosuppressed with three intraperitoneal injections of cyclophosphamide (100 mg/kg) over 5 days. After anesthesia with 2.5% avertin (500 mg/kg, ip), the left corneas of mice were scratched with 15 μl of S. aureus ATCC 29213 or P. aeruginosa ATCC 9027 (approximately 5 × 10^7 CFU/ml). Following 1 day of infection, the infected mice were randomly assigned into […] (n = 5) and subsequently administered with 0.5% compound XT17, 5% glucose solution, 5% vancomycin, or 0.3% gatifloxacin topically. S. aureus–caused murine corneal infections were treated four times a day for three consecutive days. Only 2 days of treatment were given for P. aeruginosa–caused murine corneal infections. On the first day, the drug was administered every 20 min for 1 hour and then three times at 2-hour intervals on the second day. The mice were given a 5% glucose solution as a negative control in the absence of any antimicrobial agent treatment. The infected corneas were collected after the mice were euthanized, and the number of viable bacteria was counted using MHA plates.

## CC(C)=CCOc1cc(OCCCCCCNC(=N)N)cc2oc3cc(OCCCCCCNC(=N)N)ccc3c(=O)c12 [XT44]
A. baumannii ATCC 17978
  MIC90: 6.25 µg/mL (≈ 10.5 µM)
A. baumannii R2889
  MIC90: 12.5 µg/mL (≈ 21 µM)
K. pneumonia ATCC 10031
  MIC90: 0.78 µg/mL (≈ 1.31 µM)
K. pneumonia ATCC 14581
  MIC90: 0.78 µg/mL (≈ 1.31 µM)
MRSA N315
  MIC90: 0.098 µg/mL (≈ 0.165 µM)
MRSA NCTC 10442
  MIC90: 0.098 µg/mL (≈ 0.165 µM)
P. aeruginosa ATCC 9027 [1]
  MIC90: 25 µg/mL (≈ 42 µM)
S. aureus ATCC 29213
  MIC90: 0.098 µg/mL (≈ 0.165 µM)
E. coli ATCC 25922 [2]
  MIC90 E. coli ATCC 25922: 1.56 µg/mL (≈ 2.62 µM)
E. coli ATCC 25922 [2]; Escherichia coli, ATCC25922, 24 h, read-out: MIC90 E. coli ATCC 25922
  MIC90: 1.56 to 12.5 µg/mL (≈ 2.62 to 21 µM)
Rabbit erythrocytes
  HC50: >200 µg/mL
Gram-positive bacteria
  MIC: 0.098 to 1.56 µg/mL (≈ 0.165 to 2.62 µM)
K. pneumoniae
  MIC: 0.78 µg/mL (≈ 1.31 µM)
CCK-8 cytotoxicity assay
  viability at 24 h, 25 μg/ml: 4.87 ± 0.4%

## O=C(O)c1cn(C2CC2)c2cc(N3CCNCC3)c(F)cc2c1=O [CPF, ciprofloxacin, reference compound]
P. aeruginosa ATCC 9027 [3]
  increase in MIC values during passages: ~64 fold
E. coli ATCC 25922 [4]
  genes expressed: 4682 genes
E. coli ATCC 25922 [4]; vs untreated
  Log2FC dnaE (DNA polymerase III subunit alpha): 1.7739
  Log2FC dnaN (DNA polymerase III subunit beta): 3.0865
  Log2FC dnaQ (DNA polymerase III subunit epsilon): 1.3670
  Log2FC dnaT (primosomal protein DnaT): 2.2444
  Log2FC dnaX (DNA polymerase III subunit gamma/tau): 1.7268
  Log2FC gyrA (DNA topoisomerase (ATP-hydrolyzing) subunit A): 2.2544
  Log2FC gyrB (DNA topoisomerase (ATP-hydrolyzing) subunit B): 2.4048
  Log2FC holB (DNA polymerase III subunit delta'): 1.9890
  Log2FC holD (DNA polymerase III subunit psi): 2.4551
  Log2FC parC (DNA topoisomerase IV subunit A): 1.5215
  Log2FC parE (DNA topoisomerase IV subunit B): 2.4557
  Log2FC priA (primosomal protein N'): 2.8529
  Log2FC priB (primosomal replication protein N): 3.5288
  Log2FC priC (primosomal replication protein N''): 1.7101
  Log2FC recA (recombinase RecA): 6.2751
  Log2FC recF (DNA replication/repair protein RecF): 2.2046
  Log2FC recG (ATP-dependent DNA helicase RecG): 1.1384
  Log2FC recJ (single-stranded-DNA-specific exonuclease RecJ): 1.9882
  Log2FC recO (DNA repair protein RecO): 1.9736
  Log2FC recR (recombination mediator RecR): 1.8874
  Log2FC ruvA (Holliday junction branch migration protein RuvA): 2.8598
  Log2FC ruvB (Holliday junction branch migration DNA helicase RuvB): 3.4475
  Log2FC ruvC (crossover junction endodeoxyribonuclease RuvC): 1.8052
  Log2FC ssb1 (single-stranded DNA-binding protein SSB1): 2.6468
  down-regulated genes: 130 genes
  up-regulated genes: 2246 genes
E. coli ATCC 25922 [4]; vs untreated, P < 0.05, absolute log2 fold change > 1
  differentially expressed genes: 2376 genes

## COc1c(N2CCNC(C)C2)c(F)cc2c(=O)c(C(=O)O)cn(C3CC3)c12 (centres unmarked) [gatifloxacin, reference compound]
P. aeruginosa ATCC 9027 [5]
  log reduction in viable bacterial colonies in the infected corneas: 3.08 log
